ChEMBL document CHEMBL1201862, “PubChem BioAssay data set” (2004)
Several values for one entry are separate records, joined by “and”; a condition that tells them apart may be missing. Identical values can stand only once.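 Five concentrations, 48 hours, 96-well plates. Here, GI50 denotes the concentration required for 50% inhibition of growth.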 Activity calls are given as the source filed them. Rule as the data show it: active = GI50 up to about 1.1 µM and inactive = higher.

Assays:
Test in all cases: inhibition of tumour cell growth, NCI panel, 48 h
[1] = system: HL-60
[2] = system: MCF7
[3] = system: UO-31
[4] = system: NCI-H226
[5] = system: MDA-N
[6] = system: K562
[7] = system: OVCAR-4
[8] = system: A498
[9] = system: 786-0
[10] = system: EKVX
[11] = system: PC-3
[12] = system: SNB-75
[13] = system: CCRF-CEM
[14] = system: RPMI-8226
[15] = system: SF-268
[16] = system: TK-10
[17] = system: SF-539
[18] = system: HOP-62
[19] = system: HCC 2998
[20] = system: NCI/ADR-RES

SMILES	GI50 [1]	GI50 [2]	GI50 [3]	GI50 [4]	GI50 [5]	GI50 [6]	GI50 [7]	GI50 [8]	GI50 [9]	GI50 [10]	GI50 [11]	GI50 [12]	GI50 [13]	GI50 [14]	GI50 [15]	GI50 [16]	GI50 [17]	GI50 [18]	GI50 [19]	GI50 [20]
Cc1cc(=O)[nH]c(-n2[nH]c3c(c2=O)CCCC3)n1	50.5 µM (inactive)	63 µM (inactive)	59.6 µM (inactive)	> 100 µM (inactive)	> 100 µM (inactive)	52.2 µM (inactive)	> 100 µM (inactive)	> 100 µM (inactive)	57.7 µM (inactive)	58.2 µM (inactive)	68.1 µM (inactive)	< 0.01 µM (active)	34.5 µM (inactive)	74.1 µM (inactive)	28.2 µM (inactive)	> 100 µM (inactive)	88.5 µM (inactive)	–	–	–
CC1(C)OC2[C@@H](CO[C@@]3([C@H]4OC(C)(C)O[C@@H]4CO)OC(C)(C)O[C@@H]23)O1 (stereo partly drawn)	> 100 µM (inactive)	> 100 µM (inactive)	> 100 µM (inactive)	> 100 µM (inactive)	> 100 µM (inactive)	> 100 µM (inactive)	> 100 µM (inactive)	–	> 100 µM (inactive)	> 100 µM (inactive)	> 100 µM (inactive)	> 100 µM (inactive)	> 100 µM (inactive)	> 100 µM (inactive)	> 100 µM (inactive)	> 100 µM (inactive)	–	> 100 µM (inactive)	> 100 µM (inactive)	> 100 µM (inactive)
O=C(O)c1ccc(C(O)(c2ccccc2)c2ccccc2)cc1	> 100 µM (inactive)	> 100 µM (inactive)	> 100 µM (inactive)	–	> 100 µM (inactive)	> 100 µM (inactive)	> 100 µM (inactive)	–	> 100 µM (inactive)	> 100 µM (inactive)	> 100 µM (inactive)	–	> 100 µM (inactive)	> 100 µM (inactive)	> 100 µM (inactive)	> 100 µM (inactive)	–	> 100 µM (inactive)	–	> 100 µM (inactive)
c1ccc2c(c1)ncn2C1CCCCO1 (stereo not drawn)	> 100 µM (inactive)	> 100 µM (inactive)	> 100 µM (inactive)	> 100 µM (inactive)	> 100 µM (inactive)	> 100 µM (inactive)	> 100 µM (inactive)	–	> 100 µM (inactive)	> 100 µM (inactive)	> 100 µM (inactive)	> 100 µM (inactive)	> 100 µM (inactive)	> 100 µM (inactive)	> 100 µM (inactive)	> 100 µM (inactive)	> 100 µM (inactive)	> 100 µM (inactive)	> 100 µM (inactive)	> 100 µM (inactive)
CSC1=C(C#N)C(=O)N(c2ccc(C)cc2)C(=O)C1C#N (stereo not drawn)	> 100 µM (inactive)	> 100 µM (inactive)	> 100 µM (inactive)	> 100 µM (inactive)	> 100 µM (inactive)	> 100 µM (inactive)	> 100 µM (inactive)	82.4 µM (inactive)	> 100 µM (inactive)	> 100 µM (inactive)	> 100 µM (inactive)	–	> 100 µM (inactive)	> 100 µM (inactive)	> 100 µM (inactive)	> 100 µM (inactive)	> 100 µM (inactive)	> 100 µM (inactive)	> 100 µM (inactive)	–
COc1ccc(Cn2c(=O)c(OC)c(C)c3cc4ccccc4cc32)cc1	20 µM (inactive)	33.7 µM (inactive)	39.2 µM (inactive)	45.7 µM (inactive)	34.3 µM (inactive)	28.3 µM (inactive)	20.2 µM (inactive)	–	33 µM (inactive)	6.55 µM (inactive)	16.1 µM (inactive)	32.1 µM (inactive)	23.3 µM (inactive)	–	39 µM (inactive)	25.7 µM (inactive)	32.7 µM (inactive)	45.6 µM (inactive)	29 µM (inactive)	22.1 µM (inactive)
Cc1sc(C)c2c1C(=O)CC2N (stereo not drawn)	6.64 µM (inactive)	–	15.6 µM (inactive)	> 37.8 µM (inactive)	21.1 µM (inactive)	4.85 µM (inactive)	28 µM (inactive)	> 100 µM (inactive)	7.98 µM (inactive)	44.9 µM (inactive)	27.4 µM (inactive)	> 50.1 µM (inactive)	1.04 µM (active)	2.7 µM (inactive)	> 40.9 µM (inactive)	19.1 µM (inactive)	3.26 µM (inactive)	> 85.5 µM (inactive)	19.3 µM (inactive)	50.4 µM (inactive)
COc1nc(=O)n(C2CC(N=[N+]=[N-])C(CO)O2)cc1C (stereo not drawn)	> 100 µM (inactive)	> 100 µM (inactive)	52 µM (inactive)	> 100 µM (inactive)	> 100 µM (inactive)	> 100 µM (inactive)	> 100 µM (inactive)	–	> 100 µM (inactive)	> 100 µM (inactive)	> 100 µM (inactive)	–	> 100 µM (inactive)	–	> 100 µM (inactive)	> 100 µM (inactive)	> 100 µM (inactive)	> 100 µM (inactive)	–	> 100 µM (inactive)
Cc1ccc(S(=O)(=O)Nn2c(C)cc3ccc(S(=O)(=O)Nc4ccccc4[N+](=O)[O-])cc3c2=O)cc1	> 100 µM (inactive)	99.3 µM (inactive)	63.7 µM (inactive)	40.1 µM (inactive)	29.6 µM (inactive)	3.85 µM (inactive)	> 100 µM (inactive)	–	> 100 µM (inactive)	95.9 µM (inactive)	31.6 µM (inactive)	> 100 µM (inactive)	> 100 µM (inactive)	62.8 µM (inactive)	> 100 µM (inactive)	> 100 µM (inactive)	> 100 µM (inactive)	72.3 µM (inactive)	> 100 µM (inactive)	> 100 µM (inactive)
C[n+]1ccc(/C2=C3\C=CC(=N3)/C(c3cc[n+](C)cc3)=c3/cc/c([nH]3)=C(\c3cc[n+](C)cc3)C3=N/C(=C(/c4cc[n+](C)cc4)C4C=CC2N4)C=C3)cc1	> 100 µM (inactive)	> 100 µM (inactive)	> 100 µM (inactive)	> 75.7 µM (inactive)	> 100 µM (inactive)	> 90.4 µM (inactive)	> 70 µM (inactive)	> 100 µM (inactive)	> 100 µM (inactive)	> 100 µM (inactive)	–	51.1 µM (inactive)	> 75.7 µM (inactive)	> 48.2 µM (inactive)	> 100 µM (inactive)	> 100 µM (inactive)	> 93.5 µM (inactive)	> 100 µM (inactive)	84.7 µM (inactive)	> 100 µM (inactive)
NC1=NC(=O)/C(=C2\CCNC(=O)c3[nH]c(Br)cc32)N1 [HYMENIALDISINE]	1.6 µM (inactive) and 1.66 µM (inactive)	40.9 µM (inactive) and 80.7 µM (inactive)	3.02 µM (inactive) and 5.6 µM (inactive)	–	1.9 µM (inactive)	3.85 µM (inactive) and 4.1 µM (inactive)	15.3 µM (inactive) and 17.5 µM (inactive)	–	27.5 µM (inactive)	> 100 µM (inactive) and > 71.3 µM (inactive)	56.6 µM (inactive)	34.8 µM (inactive) and 40 µM (inactive)	2.43 µM (inactive) and 2.9 µM (inactive)	–	8.93 µM (inactive) and 5.09 µM (inactive)	9.12 µM (inactive)	–	40.8 µM (inactive) and 31.9 µM (inactive)	57.9 µM (inactive) and 55.3 µM (inactive)	–
